# Data reported in patent US11324725B2, “Compositions and methods for the inhibition of pruritus” (The United States of America, as represented by the …, priority 2017, dated 2022).
# Entries after “also recorded” stand apart in the source; their conditions may differ. Read-outs that look alike come from different tables or passages of the source.
# Experiments:
# [1] = target: T1, hNpr1 (Homo sapiens, UniProt P16066); experiment: qHTS GloSensor cGMP assay, hNppa-stimulated HEK-hNpr1-cGMP-sensor cells (1536-well); assay type: cell-based; conditions: for Imax, HEK-hNpr1-cGMP-sensor cells: −100% = 38.3 μM A-71915; for Inhibition of hNppa-induced hNpr1 activity (in words): HEK-hNpr1-cGMP-sensor cells
# T1 sequence (P16066 33-1061): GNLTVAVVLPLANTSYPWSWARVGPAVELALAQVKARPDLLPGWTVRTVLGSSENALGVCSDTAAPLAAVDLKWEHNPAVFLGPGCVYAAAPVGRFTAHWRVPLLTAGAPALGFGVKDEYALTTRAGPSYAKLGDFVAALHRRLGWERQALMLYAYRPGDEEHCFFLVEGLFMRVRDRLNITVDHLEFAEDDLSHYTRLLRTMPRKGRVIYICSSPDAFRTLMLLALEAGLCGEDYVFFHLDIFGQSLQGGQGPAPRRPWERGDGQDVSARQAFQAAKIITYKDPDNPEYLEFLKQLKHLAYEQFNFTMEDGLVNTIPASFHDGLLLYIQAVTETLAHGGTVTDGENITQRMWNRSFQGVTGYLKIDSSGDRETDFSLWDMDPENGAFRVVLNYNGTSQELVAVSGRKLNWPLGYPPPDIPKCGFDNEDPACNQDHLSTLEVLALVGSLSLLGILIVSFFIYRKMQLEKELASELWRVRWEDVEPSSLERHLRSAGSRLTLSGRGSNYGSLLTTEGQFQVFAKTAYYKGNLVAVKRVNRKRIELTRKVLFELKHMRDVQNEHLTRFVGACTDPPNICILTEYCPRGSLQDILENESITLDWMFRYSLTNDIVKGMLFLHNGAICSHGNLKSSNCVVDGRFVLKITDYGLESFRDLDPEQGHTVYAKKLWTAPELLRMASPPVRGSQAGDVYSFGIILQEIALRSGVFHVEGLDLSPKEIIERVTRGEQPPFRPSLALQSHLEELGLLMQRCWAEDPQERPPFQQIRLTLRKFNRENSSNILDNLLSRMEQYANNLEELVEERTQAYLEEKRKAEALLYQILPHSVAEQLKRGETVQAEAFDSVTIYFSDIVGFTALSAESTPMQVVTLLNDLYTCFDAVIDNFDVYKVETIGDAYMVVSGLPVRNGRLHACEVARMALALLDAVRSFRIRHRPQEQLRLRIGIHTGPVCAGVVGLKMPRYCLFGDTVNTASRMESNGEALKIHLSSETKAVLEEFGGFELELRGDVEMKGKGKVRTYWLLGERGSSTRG
# Excerpt: In order to identify small molecular compounds that inhibit the Npr1 receptor a high-throughput assay to probe inhibition of the receptor guanylate cyclase Npr1 was developed. The assay was designed taking advantage of Promega's GloSensor™ technology (Promega, Madison, Wis.). This technology involves the expression of a cyclic guanosine monophosphate (cGMP) biosensor, comprised of a firefly luciferase variant that was coupled to the cGMP binding domain of human phosphodiesterase 5A, and loading of cells with a cell-permeable luciferase substrate to monitor cGMP production by Npr1 in real time in live cells. Briefly, human embryonic kidney 293 cells stably expressing the human Npr1 and the pGloSensor™-40F cGMP vector (“pGloSensor™-40F”) were generated. Stimulating these cells with the Npr1 agonists human NppA or NppB, luciferase-induced light production could be detected in a dose-dependent manner. HEK293 cells stably expressing human Npr2 and pGS-40F and cells only expressing pGS-40F were also generated to conduct secondary counter screens. In these cells, NppC or sodium nitroprusside were used to stimulate Npr2 or soluble guanylate cyclase which is endogenously expressed in HEK293 cells, respectively. The Npr2-NppC counter screen was employed to search for agents that minimally effected this agonist-receptor interaction. The Npr2-NppC system was used because the side effects of most drugs occur on related receptors. Npr1 and Npr2 are the most related receptors in sequence and function and there are no additional active receptor subtypes in this family of receptors. The procedure is described in detail below.
# Measurement of intracellular cGMP production in HEK-hNpr1-cGMP-sensor cells was scaled to 4 μl volumes in 1536-well format and primary screening was performed in an automated manner in 7- to 11-point qHTS. Cells (1.5×10^3) were plated in assay medium in white, solid bottom TC treated 1536-well plates (Greiner Bio-One) with a Multidrop™ Combi Reagent Dispenser (Thermo Fisher Scientific). Cells were incubated at 37° C., 5% CO2 and 95% humidity for 16 hours and 1 μl of GloSensor™ reagent at a final assay concentration of 2% or assay medium as background control was added to respective wells with a BioRAPTR Flying Reagent Dispenser™ (Beckman Coulter, Schaumburg, Ill.). Cells were incubated at room temperature for 2 hours, protected from light. Compound (23 nl) was transferred by a pintool (Kalypsys, San Diego, Calif.) in the concentration range of […] to 46.1 μM along with DMSO and a titration of A-71915 from top concentration 38.3 μM to 1.7 nM in columns 1-4 of each plate as vehicle and positive controls, respectively. Cells were incubated with compound for 30 minutes at room temperature, protected from light. Pre-agonist luminescence for each plate was read on a ViewLux™ plate reader (PerkinElmer). Human NppA (1 μl) at a final assay concentration of 0.1 nM, or C02-independent media were added to respective wells with a BioRAPTR Flying Reagent Dispenser™ (Beckman Coulter). Plates were incubated for 20 minutes at room temperature, protected from light, and luminescence was read on a ViewLux™ plate reader.
# Pre-agonist and post-agonist data were normalized by plate to corresponding intra-plate controls as described in Inglese et al., PNAS USA, 103: 11473-11478 (2006) (which is incorporated herein by reference, in its entirety). Assay statistics including S:N and Z′ were calculated using the same respective controls. Pre-agonist data were normalized to the average signal of DMSO-treated wells with 2% GoSensor™ reagent as 0% and the average signal of DMSO-treated wells with assay medium as −100% activity. Post-agonist data were normalized to the average signal of DMSO-treated wells with 2% GoSensor™ reagent and 0.1 nM hNppA as 0% and the average signal of wells treated with 38.3 μM A-71915 with 2% GloSensor™ reagent and 0.1 nM hNppA as −100% activity. […]
# [2] = target: T1, hNpr1; experiment: Cell-free hNpr1 membrane cyclase assay (cGMP ELISA); assay type: biochemical
# [3] = Table 1, cell-based GloSensor assay of hNpr1 inhibition, read-out: IC50 GloSensor™ assay
# [4] = qHTS follow-up, hNppa-stimulated, four-parameter fit, read-out: IC50, HEK-hNpr1-cGMP-sensor cells
# [5] = qHTS follow-up, hNppa-stimulated
# [6] = membranes of HEK-hNpr1-cGMP-sensor cells, hNppa-stimulated
# [7] = Table 1, biochemical assay, read-out: IC50 biochem assay
# [8] = calculated with Cheng-Prusoff equation from Table 4, read-out: Ki hNpr1 cyclase assay [μM] (mean ± SEM)
# [9] = membranes of HEK-hNpr1-cGMP-sensor cells, hNppa-stimulated, read-out: IC50 [μM] (mean ± SEM), membrane cyclase assay
SMILES,"IC50 [1, 3]","IC50 [1, 4]","Imax, HEK-hNpr1-cGMP-sensor cells [1, 5]",Ki [2],"IC50 ([2]; IC50 [μM] (mean ± SEM), membrane cyclase assay, membranes of HEK-hNpr1-cGMP-sensor cells, hNppa-stimulated)","IC50 ([2]; IC50 biochem assay (M), Table 1, biochemical assay)","Imax [%] (mean ± SEM), membrane cyclase assay [2, 6]","IC50 [2, 7]","Ki [2, 8]","IC50 [2, 9]",Inhibition of hNppa-induced hNpr1 activity (in words) [1]
"Cl.O=C1Nc2ccccc2CN(CC2CCCCC2)C12CCNCC2 [JS-1, 4-(cyclohexylmethyl)-4,5-dihydrospiro[benzo[e][1,4]diazepine-3,4′-piperidin]-2(1H)-one hydrochloride]",7.31 µM,26 ± 1.5 µM,−119 ± 20%,–,–,–,–,–,–,–,–
"COc1ccc(C2(C(=O)N3CCC4(CC3)c3nccn3-c3ccccc3CN4C)CC2)cc1 [JS-12, (1-(4-methoxyphenyl)cyclopropyl)(5-methyl-5,6-dihydrospiro[benzo[f]imidazo[1,2-a][1,4]diazepine-4,4′-piperidin]-1′-yl)methanone]",8.91 µM,16 ± 1.3 µM,−116 ± 11%,0.1 ± 0.015 µM,0.7 ± 0.1 µM,0.614 µM,−99.0 ± 1.0%,–,–,–,–
"CCC(CC)c1cc([C@H]2CN3CC[C@H]2C[C@@H]3CNS(=O)(=O)c2cccs2)nc(-c2ccncc2)n1 [JS-3, N-(((2R,4S,5R)-5-(6-(pentan-3-yl)-2-(pyridin-4-yl)pyrimidin-4-yl)quinuclidin-2-yl)methyl)thiophene-2-sulfonamide]",14.1 µM,62 ± 19 µM,−183 ± 67%,–,–,–,−98.2 ± 1.8%,3.98 µM,0.58 ± 0.179 µM,4 ± 1.2 µM,–
"COc1cc(CN2CCC(C)(NC(C)=O)CC2)cc(-c2ccncc2)c1 [JS-4, N-(1-(3-methoxy-5-(pyridin-4-yl)benzyl)-4-methylpiperidin-4-yl)acetamide]",14.1 µM,16 ± 13 µM,−110 ± 10%,–,–,–,−96.1 ± 3.7%,2.2 µM,0.41 ± 0.006 µM,2.8 ± 0.04 µM,–
"Cc1noc(C)c1-c1cc(-c2ccccc2Oc2ccccc2)cn2cncc12 [JS-5, 3,5-dimethyl-4-(6-(2-phenoxyphenyl)imidazo[1,5-a]pyridin-8-yl)isoxazole]",28.2 µM,32 ± 13 µM,−127 ± 12%,–,–,–,−99.8 ± 0.1%,0.141 µM,0.02 ± 0.02 µM,0.1 ± 0.1 µM,inhibit hNpr1 activity; also recorded: inhibits hNppa-induced hNpr1 activity; also recorded: antagonizes natriuretic peptide-induced activation
"Cc1nn2c(c1-c1ccccc1OCc1ccccc1)N(C(=O)Cc1ccc3c(c1)OCO3)CCC2 [JS-8, 2-(benzo[d][1,3]dioxol-5-yl)-1-(3-(2-(benzyloxy)phenyl)-2-methyl-6,7-dihydropyrazolo[1,5-a]pyrimidin-4(5H)-yl)ethan-1-one]",8.91 µM,13 ± 1.2 µM,−122 ± 9%,–,–,–,−98.0 ± 2.0%,0.336 µM,0.05 ± 0.064 µM,0.3 ± 0.4 µM,inhibit hNpr1 activity; also recorded: inhibits hNppa-induced hNpr1 activity; also recorded: antagonizes natriuretic peptide-induced activation
"CN(Cc1ccccc1)C(=O)c1cn2ccnc(-c3ccccc3)c2n1 [JS-14, N-benzyl-N-methyl-8-phenylimidazo[1,2-a]pyrazine-2-carboxamide]",6.31 µM,117 ± 75 µM,−286 ± 966%,–,–,–,−99.0 ± 0.0%,18.6 µM,1.87 ± 0.723 µM,12.7 ± 4.9 µM,–
"Cc1nn2c(c1-c1ccccc1OCc1ccccc1)N(C(=O)Cc1ccccn1)CCC2 [JS-9, 1-(3-(2-(benzyloxy)phenyl)-2-methyl-6,7-dihydropyrazolo[1,5-a]pyrimidin-4(5H)-yl)-2-(pyridin-2-yl)ethan-1-one]",8.91 µM,35 ± 15 µM,−106 ± 18%,–,–,–,−95.3 ± 4.5%,2.17 µM,0.32 ± 0.262 µM,2.2 ± 1.8 µM,–
"O=C(Cc1ccc(Cl)cc1)N1Cc2ccccc2CC2(CCCN2CC2CCNC2)C1 (stereo not shown) [JS-2, 2-(4-chlorophenyl)-1-(1′-(pyrrolidin-3-ylmethyl)-1,5-dihydrospiro[benzo[c]azepine-4,2′-pyrrolidin]-2(3H)-yl)ethan-1-one]",13 µM,25 ± 1.3 µM,−102 ± 9%,–,–,–,–,–,–,–,–
"N#Cc1ccccc1CN1CCCC(C(=O)NCc2ccccc2)CCNC(=O)CC1 (stereo not shown) [JS-13, N-benzyl-1-(2-cyanobenzyl)-4-oxo-1,5-diazacycloundecane-8-carboxamide]",3.98 µM,10 ± 1.2 µM,−99 ± 6%,–,–,–,−94.4 ± 5.4%,1.19 µM,0.12 ± 0.13 µM,0.8 ± 0.9 µM,–
